# Biological target: High affinity nerve growth factor receptor (Homo sapiens, UniProt P04629)
# Assay: TrkA Receptor : TrkA functional activity was measured using a DiscoverX PathHunter assay. In this assay, U2OS cells are express TrkA receptor as a fusion with the weakly complementing fragment of B-galactosidase, which DiscoverX calls “Prolink (PK)”; additionally, Shc1 is fused with a larger fragment, which is called “Enzyme Acceptor (EA)”. Activation of the TrkA receptor, upon NGF addition, results in the kinase domain being phosphorylated, resulting in subsequent recruitment of Shc1-EA protein. That recruitment results in an active B-galactosidase enzyme that is detected by addition of a chemiluminescent substrate.All reagents were purchased from DiscoverX, except for the receptor agonists (NGF, BDNF, NT3) which were purchased from Peprotech. Cells were expanded and frozen into cryovials (TrkA p75 @ passage 13, 1.5×10^7 cells/vial; TrkC p75 @ passage 11, 1.5×10^7 cells/vial in InVitrogen Recovery Cell Freezing media), and stored in the vapor phase of liquid nitrogen, and thawed immediately before use. Thawed cells were added to a 384-well plate (BD Falcon 384-well white/clear, TC surface 120 uL assay plates (353963), 20 uL of 0.375e6 cells/mL=>7500 cells/well), and allowed to incubate overnight. […]
# Chain of High affinity nerve growth factor receptor (P04629 whole entry, the tested form may be a part): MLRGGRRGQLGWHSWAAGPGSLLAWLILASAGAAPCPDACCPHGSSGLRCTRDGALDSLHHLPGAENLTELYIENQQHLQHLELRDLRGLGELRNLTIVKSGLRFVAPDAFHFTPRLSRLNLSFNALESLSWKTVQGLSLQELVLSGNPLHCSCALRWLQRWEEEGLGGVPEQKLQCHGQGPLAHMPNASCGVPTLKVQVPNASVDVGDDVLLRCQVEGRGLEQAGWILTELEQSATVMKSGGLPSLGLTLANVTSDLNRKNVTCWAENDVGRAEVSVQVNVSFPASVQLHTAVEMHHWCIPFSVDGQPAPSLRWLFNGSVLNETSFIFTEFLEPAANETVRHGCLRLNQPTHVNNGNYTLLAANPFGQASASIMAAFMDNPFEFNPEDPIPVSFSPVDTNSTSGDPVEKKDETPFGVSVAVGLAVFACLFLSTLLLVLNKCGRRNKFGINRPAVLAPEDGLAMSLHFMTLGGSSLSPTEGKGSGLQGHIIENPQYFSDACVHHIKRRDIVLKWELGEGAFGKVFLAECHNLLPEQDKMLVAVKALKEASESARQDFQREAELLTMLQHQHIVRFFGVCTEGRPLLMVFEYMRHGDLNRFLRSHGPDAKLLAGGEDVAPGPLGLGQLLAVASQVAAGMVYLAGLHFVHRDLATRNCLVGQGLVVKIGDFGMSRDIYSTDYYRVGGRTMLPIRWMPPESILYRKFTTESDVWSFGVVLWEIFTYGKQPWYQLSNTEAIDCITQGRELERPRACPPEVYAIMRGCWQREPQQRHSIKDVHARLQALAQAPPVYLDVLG
compound,measurement,value
Cc1ncc(NC(=O)Nc2c(-c3ccccc3)[nH]c3ccccc23)c(-c2ccccc2)n1,IC50,570 nM

# Source: ChEMBL document CHEMBL5726785, “TrkA kinase inhibitors, compositions and methods thereof” (2018)
